Results on two compounds are retold here after US8097282B2, “Methods of administering liquid droplet aerosols of nanoparticulate drugs” (Alkermes Pharma Ireland Limited, priority 1995, dated 2012).

Each structure is given as a SMILES string.

Data set [1] has as its system rabbit's pulmonary region. Put plainly: Computed tomography (CT) after administration of ultrasonically nebulized formulation to an intubated anesthetized rabbit. The note with it: ultrasonic nebulizer, several minutes, 30% suspension in 6% F108. Format: in vivo. As for the experimental part: (§1) In this example, a suspension of WIN 68209 (30%) in aqueous F108 surfactant (6%) was prepared by conventional roller milling techniques (jar mill, zirconium silicate beads, 7 days milling time). The mean particle size of the resultant distribution was 196 nm. The formulation was administered to an anesthetized rabbit as follows: Several mL of formulation was placed in an ultrasonic nebulizer (DeVilbiss AeroSonic™) which was connected in-line with a mechanical ventilator, terminating in a suitable endotracheal tube. The rabbit was then intubated and administered the nebulized formulation for several minutes.

Data set [2] is described as follows: Mean particle size of roller-milled WIN 68209 suspension. Format: physicochemical. The note with it: 30% suspension in aqueous F108 surfactant (6%), 7 days roller milling. The method, then: as §1
Data set [3] is classed as physicochemical. As for the experimental part:
Nanoparticle Preparation and Characterization. Nanoparticles were prepared by media milling a suspension of 5% beclomethasone diproprionate in an aqueous solutions of PVA. Thus, the PVA was the surface modifier. The resulting particle size distribution was determined by dynamic light scattering. The particle size distribution was periodically monitored throughout the course of the study. […] In addition, particle size of the diluted dispersions remained constant for at least the duration of the experiment.

As to `CCOC(=O)C=C(COC(=O)c1c(I)c(NC(C)=O)c(I)c(NC(C)=O)c1I)OCC` [WIN 68209, benzoic acid, 3,5-bis(acetylamino)-2,4,6triodo-, 4(ethyl-3-ethoxy-2-butenoate) ester], the “CT scans of pulmonary region after nebulized administration” value in data set [1] was “showed the presence of radiopaque contrast agent in the region”. Further, the mean particle size in data set [2] came out at 196 nm.

For `CCC(=O)OCC(=O)[C@@]1(OC(=O)CC)[C@@H](C)C[C@H]2[C@@H]3CCC4=CC(=O)C=C[C@]4(C)[C@@]3(Cl)[C@@H](O)C[C@@]21C.O` [beclomethasone diproprionate, Beclomethasone diproprionate], in data set [3], the chemical stability entry is on record as “neither was there any evidence of chemical instability” and the particle size stability result is “remained constant throughout the course of the study”. This compound yielded a particle size distribution in data set [3] (nanoparticles in 2.5% polyvinyl alcohol) of 0.26±0.13 micrometer.
